Test results: paper PMC3676400, “3-Oxoacyl-ACP Reductase from Schistosoma japonicum: Integrated In Silico-In Vitro Strategy for Discovering Antischistosomal Lead Compounds” (PLoS ONE, 2013)
Where two headings read alike, the source gives them in different places.

Tests used:
P. falciparum OAR = settings: cited from earlier work
Escherichia coli OAR = settings: E. coli, ref [32], cited from earlier work
M. tuberculosis OAR = settings: cited from earlier work
rSjOAR [1] = molecular target: T1, rSjOAR (Schistosoma japonicum, UniProt Q5DB51); assay: BIAcore assay of binding to immobilized rSjOAR
Protocol: The binding capacities of small compounds identified by the virtual screen with rSjOAR were assessed using a BIAcore 3000 instrument (BIAcore AB, Uppsala, Sweden). The recombinant His-tag fusion protein SjOAR was immobilized onto an NTA chip. Compounds were injected at a concentration of 10 µM and a flow rate of 40 µl/min in HBS buffer (0.01 M HEPES, 0.15 M NaCl, 3.0 mM EDTA, 0.005% Tween 20, pH 7.4) containing 1‰ DMSO (Dimethyl sulfoxide). Electrical alterations on the sensor chip were monitored as a resonance signal by using the program supplied by the manufacturer. To further obtain kinetic parameters, a series of compound concentrations (0.5 µM, 1 µM, 2 µM, 5 µM and 10 µM) were measured. Data were analyzed by using the software with which the instrument was equipped.

adult worms [2] = assay: Inhibition studies on cultured adult worms
rSjOAR [3] = molecular target: T1, rSjOAR; assay: Effect of active compounds on rSjOAR enzymatic activity; type: biochemical
Protocol: The Median inhibitory concentration (IC50) was calculated by curve fitting using SPSS18.0 statistical software with a confidence interval of 95%. All assays were carried out in triplicate and repeated three times.

adult worms [4] = system: adult worms; set-up: method as in PMID 19851783; settings: after the drug is removed; ref [30]; cited from earlier work
[5] = substrate: CC(=O)CC(=O)SCCNC(=O)CCNC(=O)[C@H](O)C(C)(C)COP(=O)(O)OP(=O)(O)OC[C@H]1O[C@@H](n2cnc3c(N)ncnc32)[C@H](O)[C@@H]1OP(=O)(O)O; assay: rSjOAR kinetic analysis (Michaelis constants of substrates); type: biochemical; settings: other: S. japonicum; pH 6.8; 37.0 °C
Protocol: The linear rates obtained over the first 0–2 min were analyzed by the non-linear regression function in OriginPro software. To investigate the enzyme mechanism, a matrix of kinetic data was taken where one substrate was varied at four fixed concentrations of the other substrate. Individual data sets were analyzed using the Michaelis-Menten equation (eq 1) in order to establish whether the double-reciprocal plots were parallel or convergent. The data for intersecting initial velocity patterns were fitted to eq2, describing a steady-state sequential mechanism.

With `CC(=O)CC(=O)SCCNC(=O)CCNC(=O)[C@H](O)C(C)(C)COP(=O)(O)OP(=O)(O)OC[C@H]1O[C@@H](n2cnc3c(N)ncnc32)[C@H](O)[C@@H]1OP(=O)(O)O` [AcAcCoA, Acetoacetyl-CoA] as the molecule, how does the Km (P. falciparum OAR; read-out: Km(app)AcAcCoA, ref [12], [22]) read?
Its Km is 510 ± 50 µM.

What about the Km (Escherichia coli OAR; read-out: Km(app)AcAcCoA) of the same molecule?
Its Km is 2.5 mM.

And the Km (M. tuberculosis OAR; read-out: Km(app)AcAcCoA, M. tuberculosis, ref [17], [20])?
The Km was 170 ± 20 µM.

Which results are given for `O=C(NC1CCN(CCc2c[nH]c3ccccc23)CC1)c1ccccc1` [OAR8]?
Rmax (maximum binding capacity) (rSjOAR [1]; BIAcore): 57.4; KA (association constant) (rSjOAR [1]; BIAcore, five concentrations 0.5-10 µM): 82900 M⁻¹; Kd (rSjOAR [1]; BIAcore, five concentrations 0.5-10 µM, read-out: KD (dissociation constant)): 12.1 µM; mortality (adult worms [2]; primary screening, 50 µg/ml, after 48 h): 100%

What does the source list for `O=C(C1CCCCC1)N1CC(=O)N2CCc3ccccc3C2C1` (stereo not shown) [PZQ, praziquantel]?
BIAcore response signal (rSjOAR [1]; compound 10 µM): only a small signal; effect on rSjOAR enzymatic activity (rSjOAR [3]): no significant inhibition; reversibility of effect against schistosomes (adult worms [4]): reversible; morphological changes, optical microscopy (adult worms [2]; PZQ 10 µg/ml, 24 h (Figure 5E)): drastic contractions; mortality at 1.6 µg/mL (adult worms [2]; Schistosoma japonicum, 72 h): 83.3%

With NADPH as the molecule, how does the Km (P. falciparum OAR; read-out: Km(app)NADPH, ref [12], [22]) read?
Its Km is 47.5 ± 4.5 µM.

What about the Km (Escherichia coli OAR; read-out: Km(app)NADPH) of the same molecule?
Its Km is 0.021 mM.

What about the Km (M. tuberculosis OAR; read-out: Km(app)NADPH) of the same molecule?
The Km was 26 ± 3 µM.

B1: rSjOAR (Schistosoma japonicum) (protein)
chain: MISLSKKVAIVTGASSGIGRATAILFAKLGACVALVARDKSRLQETRQACIQVSHPDVYEKHKEPFLCIEADLGDSHEVEKAYRLALNHFHQLDILVNNAGFMIQDTVETFNIDEYERLMKLNLTAAITLTNLAVPDLTTTKGSIVNVSSVCGERSFPGVMSYCISKAALDQFTKCTALDLASKGIRVNSVNPAVIVTELHKRAGMSEDDYKKFLLKSKESHALGRTGTVEEVAQAIAFLSSSASSFTTGNLLMVDGGRSIMCPR
With B1 as the molecule, how does the Km [5] read?
The Km was 0.55 ± 0.03 mM.
